#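 Cells were grown in 96-well plates and exposed to each compound for 48 hours at five concentrations; endpoints were interpolated linearly between bracketing concentrations, or set to the highest concentration if not reached. TGI: concentration producing complete growth inhibition.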
# Columns and labels:
# Experiment in all cases: inhibition of tumour cell growth, NCI panel, 48 h
# A549 NSCLC = test system: A549 NSCLC
# ACHN renal = test system: ACHN renal
# CAKI-1 renal = test system: CAKI-1 renal
# CCRF-CEM leukemia = test system: CCRF-CEM leukemia
# COLO 205 colon = test system: COLO 205 colon
# DLD-1 colon = test system: DLD-1 colon
# DMS 114 small cell lung = test system: DMS 114 small cell lung
# DMS 273 small cell lung = test system: DMS 273 small cell lung
# EKVX NSCLC = test system: EKVX NSCLC
# HCC-2998 colon = test system: HCC-2998 colon
# HCT-116 colon = test system: HCT-116 colon
# HCT-15 colon = test system: HCT-15 colon
# HOP-62 NSCLC = test system: HOP-62 NSCLC
# HT29 colon = test system: HT29 colon
# IGROV1 ovarian = test system: IGROV1 ovarian
# K-562 leukemia = test system: K-562 leukemia
# KM12 colon = test system: KM12 colon
# KM20L2 colon = test system: KM20L2 colon
# LOX IMVI melanoma = test system: LOX IMVI melanoma
# LXFL 529 NSCLC = test system: LXFL 529 NSCLC
# M14 melanoma = test system: M14 melanoma
# M19-MEL melanoma = test system: M19-MEL melanoma
# MALME-3M melanoma = test system: MALME-3M melanoma
# MOLT-4 leukemia = test system: MOLT-4 leukemia
# NCI-H226 lung = test system: NCI-H226 lung
# NCI-H23 lung = test system: NCI-H23 lung
# NCI-H460 lung = test system: NCI-H460 lung
# NCI-H522 lung = test system: NCI-H522 lung
# OVCAR-3 ovarian = test system: OVCAR-3 ovarian
# OVCAR-4 ovarian = test system: OVCAR-4 ovarian
# OVCAR-5 ovarian = test system: OVCAR-5 ovarian
# OVCAR-8 ovarian = test system: OVCAR-8 ovarian
# RPMI-8226 leukemia = test system: RPMI-8226 leukemia
# SF-268 CNS = test system: SF-268 CNS
# SF-295 CNS = test system: SF-295 CNS
# SF-539 CNS = test system: SF-539 CNS
# SK-MEL-2 melanoma = test system: SK-MEL-2 melanoma
# SK-MEL-28 melanoma = test system: SK-MEL-28 melanoma
# SK-MEL-5 melanoma = test system: SK-MEL-5 melanoma
# SK-OV-3 ovarian = test system: SK-OV-3 ovarian
# SN12C renal = test system: SN12C renal
# SNB-19 CNS = test system: SNB-19 CNS
# SNB-75 CNS = test system: SNB-75 CNS
# SNB-78 CNS = test system: SNB-78 CNS
# SR leukemia = test system: SR leukemia
# SW-620 colon = test system: SW-620 colon
# U251 CNS = test system: U251 CNS
# UACC-257 melanoma = test system: UACC-257 melanoma
# UACC-62 melanoma = test system: UACC-62 melanoma
# UO-31 renal = test system: UO-31 renal
# XF 498 CNS = test system: XF 498 CNS
# 786-0 renal = test system: 786-0 renal
# A498 renal = test system: A498 renal
# HL-60(TB) leukemia = test system: HL-60(TB) leukemia
# HOP-18 NSCLC = test system: HOP-18 NSCLC
# RXF 393 renal = test system: RXF 393 renal
# TK-10 renal = test system: TK-10 renal
structure (smiles),measurement,setting,value
CC1SC(c2ccccc2)N(Nc2c3ccccc3nc3ccccc23)C1=O (stereo unspecified),TGI,A549 NSCLC,> 100 µM
same,TGI,ACHN renal,> 100 µM
same,TGI,CAKI-1 renal,> 100 µM
same,TGI,CCRF-CEM leukemia,> 100 µM
same,TGI,COLO 205 colon,> 100 µM
same,TGI,DLD-1 colon,> 100 µM
same,TGI,DMS 114 small cell lung,> 100 µM
same,TGI,DMS 273 small cell lung,> 100 µM
same,TGI,EKVX NSCLC,> 100 µM
same,TGI,HCC-2998 colon,> 100 µM
same,TGI,HCT-116 colon,> 100 µM
same,TGI,HCT-15 colon,> 100 µM
same,TGI,HOP-62 NSCLC,> 100 µM
same,TGI,HT29 colon,> 100 µM
same,TGI,IGROV1 ovarian,> 100 µM
same,TGI,K-562 leukemia,> 100 µM
same,TGI,KM12 colon,> 100 µM
same,TGI,KM20L2 colon,> 100 µM
same,TGI,LOX IMVI melanoma,> 100 µM
same,TGI,LXFL 529 NSCLC,> 100 µM
same,TGI,M14 melanoma,> 100 µM
same,TGI,M19-MEL melanoma,> 100 µM
same,TGI,MALME-3M melanoma,> 100 µM
same,TGI,MOLT-4 leukemia,> 100 µM
same,TGI,NCI-H226 lung,> 100 µM
same,TGI,NCI-H23 lung,> 100 µM
same,TGI,NCI-H460 lung,> 100 µM
same,TGI,NCI-H522 lung,> 100 µM
same,TGI,OVCAR-3 ovarian,> 100 µM
same,TGI,OVCAR-4 ovarian,> 100 µM
same,TGI,OVCAR-5 ovarian,> 100 µM
same,TGI,OVCAR-8 ovarian,> 100 µM
same,TGI,RPMI-8226 leukemia,> 100 µM
same,TGI,SF-268 CNS,> 100 µM
same,TGI,SF-295 CNS,> 100 µM
same,TGI,SF-539 CNS,> 100 µM
same,TGI,SK-MEL-2 melanoma,> 100 µM
same,TGI,SK-MEL-28 melanoma,> 100 µM
same,TGI,SK-MEL-5 melanoma,> 100 µM
same,TGI,SK-OV-3 ovarian,> 100 µM
same,TGI,SN12C renal,> 100 µM
same,TGI,SNB-19 CNS,> 100 µM
same,TGI,SNB-75 CNS,> 100 µM
same,TGI,SNB-78 CNS,> 100 µM
same,TGI,SR leukemia,> 100 µM
same,TGI,SW-620 colon,> 100 µM
same,TGI,U251 CNS,> 100 µM
same,TGI,UACC-257 melanoma,> 100 µM
same,TGI,UACC-62 melanoma,> 100 µM
same,TGI,UO-31 renal,82.3 µM
same,TGI,XF 498 CNS,> 100 µM
CC1=CCC2(C#N)CCC1C2O (stereo unspecified),TGI,786-0 renal,> 100 µM
same,TGI,A498 renal,> 100 µM
same,TGI,A549 NSCLC,> 100 µM
same,TGI,ACHN renal,> 100 µM
same,TGI,CAKI-1 renal,> 100 µM
same,TGI,CCRF-CEM leukemia,> 100 µM
same,TGI,COLO 205 colon,> 100 µM
same,TGI,DLD-1 colon,> 100 µM
same,TGI,DMS 114 small cell lung,> 100 µM
same,TGI,DMS 273 small cell lung,> 100 µM
same,TGI,EKVX NSCLC,> 100 µM
same,TGI,HCC-2998 colon,> 100 µM
same,TGI,HCT-116 colon,> 100 µM
same,TGI,HCT-15 colon,> 100 µM
same,TGI,HL-60(TB) leukemia,> 100 µM
same,TGI,HOP-18 NSCLC,> 100 µM
same,TGI,HOP-62 NSCLC,> 100 µM
same,TGI,HT29 colon,> 100 µM
same,TGI,IGROV1 ovarian,> 100 µM
same,TGI,K-562 leukemia,> 100 µM
same,TGI,KM12 colon,> 100 µM
same,TGI,KM20L2 colon,> 100 µM
same,TGI,LOX IMVI melanoma,> 100 µM
same,TGI,LXFL 529 NSCLC,> 100 µM
same,TGI,M14 melanoma,> 100 µM
same,TGI,M19-MEL melanoma,> 100 µM
same,TGI,MALME-3M melanoma,> 100 µM
same,TGI,MOLT-4 leukemia,> 100 µM
same,TGI,NCI-H226 lung,> 100 µM
same,TGI,NCI-H460 lung,> 100 µM
same,TGI,NCI-H522 lung,> 100 µM
same,TGI,OVCAR-3 ovarian,> 100 µM
same,TGI,OVCAR-4 ovarian,> 100 µM
same,TGI,OVCAR-5 ovarian,> 100 µM
same,TGI,OVCAR-8 ovarian,> 100 µM
same,TGI,RPMI-8226 leukemia,> 100 µM
same,TGI,RXF 393 renal,> 100 µM
same,TGI,SF-268 CNS,> 100 µM
same,TGI,SF-295 CNS,> 100 µM
same,TGI,SF-539 CNS,> 100 µM
same,TGI,SK-MEL-2 melanoma,> 100 µM
same,TGI,SK-MEL-28 melanoma,> 100 µM
same,TGI,SK-MEL-5 melanoma,> 100 µM
same,TGI,SK-OV-3 ovarian,> 100 µM
same,TGI,SN12C renal,> 100 µM
same,TGI,SNB-19 CNS,> 100 µM
same,TGI,SNB-75 CNS,> 100 µM
same,TGI,SNB-78 CNS,> 100 µM
same,TGI,SR leukemia,> 100 µM
same,TGI,TK-10 renal,> 100 µM
same,TGI,U251 CNS,> 100 µM
same,TGI,UACC-257 melanoma,> 100 µM
same,TGI,UACC-62 melanoma,> 100 µM
same,TGI,UO-31 renal,> 100 µM
same,TGI,XF 498 CNS,> 100 µM

# Reference: PubChem BioAssay (NCI)
